# From US20200032249A1, “LABELING, ISOLATION, & ANALYSIS OF RNA FROM RARE CELL POPULATIONS” (priority 2017, published 2020)
# What was measured:
# [1] = system: MDA231 cells expressing CD/UPRT in mouse lungs; assay: signal-to-noise ratio of Flura-tagging and TU-tagging in vivo, lung colonization xenograft, RT-PCR; conditions: 250 mg/kg, 12 h post injection
# Method: FIG. 3 a-g. Flura-tagging of mRNA in vivo. FIG. 3a—Schematic diagram of lung colonization xenograft assay used for evaluation of Flura-tagging/Flura-seq. Athymic mice were injected through the tail vein with 50,000 MDA231 cells expressing CD/UPRT and GFP-luciferase. Upon the development of detectable bioluminescent lung metastases (4 weeks), mice were treated with doxycycline to induce CD/UPRT expression and injected with 5-FC. Lungs were harvested, and Flura-tagged mRNAs were immunopurified. FIG. 3b—Comparison of signal-to-noise ratio of Flura-tagging and TU-tagging in vivo. Mice were injected with either 5-FC or TU, the Flura-tagged or TU-tagged mRNAs were purified 12 h post injection, and the relative fold enrichment of representative human housekeeping genes relative to representative murine housekeeping genes (mHPRT1, mLDH1, mPGK1 and mGAPDH), normalized to their corresponding unpurified inputs, were measured by RT-PCR (n=5, ±S.E.). FIG. 3c—Quantification of the number of human cells in the mouse lungs used for Flura-tagging. Half of the mouse lungs used for Flura-tagging in FIG. 3b was dissociated into single cells, and the number of RFP+ cells was quantified using flow cytometry. The total number of MDA231 cells per lung was estimated based on an assumption of 1.5×10^8 cells per mouse lung (20) (n=5). […] RNA reads were aligned to a hybrid genome containing the human and mouse genomes. […]
# [2] = system: CD/UPRT-expressing MDA231 cells; assay: expression of representative human genes in mouse lung lysates by RT-PCR; assay type: in vivo; conditions: 250 mg/kg, 8 h, mouse lungs
# Method: FIG. 5 a-e. Flura-tagging enables transcriptional profiling from micrometastatic lung xenografts. FIG. 5a—Representative H & E stained sections of mouse lungs harboring micrometastases (arrows) used in Flura-tagging experiments. […] Scale bar=2 mm (top), 100 μM (bottom). FIG. 5b—Representative micrometastasis in the context of lung vasculature. MDA231 cells were stained with anti-GFP antibody, blood vessels with anti-CD31 antibody and nuclei (DNA) with Hoechst 33258. Scale bar=50 μM. FIG. 5c—Quantification of the number of cells per micrometastasis per tissue section in engrafted lungs of mice used in the Flura-tagging experiments. The number of nuclei in individual micrometastases in lung sections from 16 separate mice were counted. […] Expression of the indicated representative genes in the lung lysates containing control MDA231 cells or MDA231 cells expressing CD/UPRT and treated with 250 mg/kg 5-FC for 8 h, was measured by RT-PCR using human specific primers (n=3). […] FIG. 5e—Flow cytometric quantification of the number of RFP+ MDA231 cells in mouse lung in the Flura-tagging experiments. […]
# Mouse experiments were performed following the protocols approved by the MSKCC Institutional Animal Care and Use Committee (IACUC). […] Proliferation of injected cancer cells were quantified using bioluminescence imaging following retroorbital injection of luciferin. […]
structure (smiles),measurement,setting,value
"Nc1nc(=O)[nH]cc1F [5-FC, 5-fluorocytosine]",enrichment of human mRNAs compared to mouse mRNAs,[1],over 1000 fold
same,range of expression of representative human genes vs control MDA231 cells,[2],≤ 2 fold
